Laboratory results reported in patent publication US7678787B2, “Pyrrolobenzodiazepine pyridine carboxamides and derivatives as follicle-stimulating hormone receptor antagonists” (Wyeth, priority 2005, dated 2010).
Read-outs that look alike come from different tables or passages of the source.

How the values were obtained:
human FSH receptor = target: T1, human FSH receptor (Homo sapiens, UniProt P23945); assay: FSH receptor-dependent CRE-luciferase reporter gene assay (CHO FSH-R 6CRE-Luc cells); type: cell-based
T1 construct: host or cells: CHO-K1 (CHO FSH-R 6CRE-Luc, 1D7 cells)
T1 sequence (P23945 18-695): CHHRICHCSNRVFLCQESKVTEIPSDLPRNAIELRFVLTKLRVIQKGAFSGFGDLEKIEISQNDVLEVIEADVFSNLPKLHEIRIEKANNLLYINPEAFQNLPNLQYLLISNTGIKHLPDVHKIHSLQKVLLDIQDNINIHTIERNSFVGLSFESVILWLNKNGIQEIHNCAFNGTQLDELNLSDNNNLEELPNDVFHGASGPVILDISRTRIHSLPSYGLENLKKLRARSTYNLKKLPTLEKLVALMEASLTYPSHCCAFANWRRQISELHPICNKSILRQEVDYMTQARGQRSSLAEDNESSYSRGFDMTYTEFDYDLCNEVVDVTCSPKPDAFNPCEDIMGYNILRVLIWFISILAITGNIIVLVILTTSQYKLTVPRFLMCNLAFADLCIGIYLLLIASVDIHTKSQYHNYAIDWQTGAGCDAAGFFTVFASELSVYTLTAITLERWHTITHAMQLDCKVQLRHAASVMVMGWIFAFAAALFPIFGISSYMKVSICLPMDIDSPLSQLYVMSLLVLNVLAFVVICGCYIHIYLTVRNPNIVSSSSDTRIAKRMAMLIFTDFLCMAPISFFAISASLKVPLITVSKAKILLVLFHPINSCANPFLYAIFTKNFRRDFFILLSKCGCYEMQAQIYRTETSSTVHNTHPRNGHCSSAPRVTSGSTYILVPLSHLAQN

[1] = 2-dose format, test concentration in parentheses = 30 μM, percent inhibition of response to EC50 of FSH, read-out: CRE % inhibition

inhibition at 30 µM (human FSH receptor; [1])	melting point	SMILES	inhibition at 30 µM (human FSH receptor; read-out: CRE % inhibition (μM))
11%	–	Cc1cc(C(=O)N2Cc3ccc(C(=O)NCc4cccnc4)n3Cc3ccccc32)ccc1-c1ccc(Cl)c(Cl)c1 [Example 25]	–
29%	198 to 199 °C	O=C(c1ccccc1)c1ccccc1-c1ccc(C(=O)N2Cc3ccc(C(=O)NCc4cccnc4)n3Cc3ccccc32)cc1 [Example 60]	–
17.3%	–	COc1ccccc1-c1ccc(S(=O)(=O)N2Cc3ccc(C(=O)NCc4cccnc4)n3Cc3ccccc32)cc1 [Example 71]	–
6.61%	–	O=C(NCc1cccnc1)c1ccc2n1Cc1ccccc1N(S(=O)(=O)c1ccc(-c3ccccc3Cl)cc1)C2 [Example 72]	–
2.4%	157 to 158 °C	O=C(NCc1cccnc1)c1ccc2n1Cc1ccccc1N(C(=O)c1ccccc1C(F)(F)F)C2 [Example 82]	–
40%	103 to 109 °C	O=C(NCc1cccnc1)c1ccc2n1Cc1ccccc1N(C(=O)c1c(F)cccc1F)C2 [Example 86]	–
38%	170 to 172 °C	COC(=O)c1ccc(C(=O)N2Cc3ccc(C(=O)NCc4cccnc4)n3Cc3ccccc32)cc1 [Example 87, METHYL 4-{[3-{[(PYRIDIN-3-YLMETHYL)AMINO]CARBONYL}-5H-PYRROLO[2,1-C][1,4]BENZODIAZEPIN-10(11H)-YL]CARBONYL}BENZOATE]	–
13%	–	N#Cc1ccc(C(=O)N2Cc3ccc(C(=O)NCc4cccnc4)n3Cc3ccccc32)cc1 [Example 90]	–
37%	–	O=C(NCc1cccnc1)c1ccc2n1Cc1ccccc1N(C(=O)c1ccc(Cl)cc1)C2 [Example 91]	–
17%	–	Cc1ccccc1C(=O)N1Cc2ccc(C(=O)NCc3cccnc3)n2Cc2ccccc21 [Example 94]	–
45%	138 to 140 °C	O=C(NCc1cccnc1)c1ccc2n1Cc1ccccc1N(C(=O)c1cc(F)cc(F)c1)C2 [Example 95]	–
18%	142 to 143 °C	O=C(NCc1cccnc1)c1ccc2n1Cc1ccccc1N(C(=O)c1ccccc1F)C2 [Example 97]	–
35%	–	O=C(NCc1cccnc1)c1ccc2n1Cc1ccccc1N(C(=O)c1ccc([N+](=O)[O-])cc1)C2 [Example 99]	–
21%	172 to 175 °C	O=C(NCc1cccnc1)c1ccc2n1Cc1ccccc1N(C(=O)c1ccc(-c3cncnc3)cc1)C2 [Example 106]	–
34%	–	O=C(NCc1cccnc1)c1ccc2n1Cc1ccccc1N(C(=O)c1cccs1)C2 [Example 115]	–
24%	–	O=C(NCc1cccnc1)c1ccc2n1Cc1ccccc1N(C(=O)c1ccc(Cl)nc1)C2 [Example 117]	–
41%	–	O=C(NCc1cccnc1)c1ccc2n1Cc1ccccc1N(C(=O)c1cnccn1)C2 [Example 123]	–

inhibition at 30 µM (human FSH receptor; [1])	melting point	SMILES	inhibition at 30 µM (human FSH receptor; read-out: CRE % inhibition (μM))
7%	–	O=C(NCc1cccnc1)c1ccc2n1Cc1ccccc1N(C(=O)c1cccnc1)C2 [Example 124]	–
–	–	O=C(NCc1cccnc1)c1ccc2n1Cc1ccccc1N(C(=O)c1ccc(N3CCCCC3)nc1)C2 [Example 125]	31%
9%	–	O=C(NCc1cccnc1)c1ccc2n1Cc1ccccc1N(C(=O)c1ccc(NCCCc3ccccc3)nc1)C2 [Example 127]	–
16%	–	COc1cccc(CNc2ccc(C(=O)N3Cc4ccc(C(=O)NCc5cccnc5)n4Cc4ccccc43)cn2)c1 [Example 129]	–
26%	–	CN(Cc1ccccc1)c1ccc(C(=O)N2Cc3ccc(C(=O)NCc4cccnc4)n3Cc3ccccc32)cn1 [Example 130]	–
26%	–	O=C(NCc1cccnc1)c1ccc2n1Cc1ccccc1N(C(=O)c1ccc(NCCO)nc1)C2 [Example 132]	–
4%	–	O=C(NCc1cccnc1)c1ccc2n1Cc1ccccc1N(C(=O)c1ccc(OCc3ccccc3)nc1)C2 [Example 134]	–
34%	85 °C	CC(C)(C)c1ccc(OCC(=O)N2Cc3ccc(C(=O)NCc4cccnc4)n3Cc3ccccc32)cc1 [Example 135]	–
41%	–	O=C(NCc1cccnc1)c1ccc2n1Cc1ccccc1N(C(=O)COc1ccccc1)C2 [Example 136]	–
16%	83 °C	CC(Oc1ccccc1)C(=O)N1Cc2ccc(C(=O)NCc3cccnc3)n2Cc2ccccc21 (centres unmarked) [Example 137]	–
32%	–	O=C(NCc1cccnc1)c1ccc2n1Cc1ccccc1N(C(=O)CSc1ccc(Br)cc1)C2 [Example 141]	–
48%	153 to 155 °C	O=C(NCc1cccnc1)c1ccc2n1Cc1ccccc1N(C(=O)Cc1ccc(-c3ccccc3)cc1)C2 [Example 143]	–
35%	175 °C	O=C(NCc1cccnc1)c1ccc2n1Cc1ccccc1N(C(=O)/C=C/c1ccccc1)C2 [Example 144]	–
40%	188 °C	O=C(NCc1cccnc1)c1ccc2n1Cc1ccccc1N(C(=O)c1cccc3ccccc13)C2 [Example 145]	–
35%	103 to 107 °C	CC(C)(C)CC(=O)N1Cc2ccc(C(=O)NCc3cccnc3)n2Cc2ccccc21 [Example 148]	–
8%	–	O=C(NCc1cccnc1)c1ccc2n1Cc1ccccc1N(C(=O)C1CCCCC1)C2 [Example 149, 10-(CYCLOHEXYLCARBONYL)-N-(PYRIDIN-3-YLMETHYL)-10,11-DIHYDRO-5H-PYRROLO[2,1-C][1,4] BENZODIAZEPINE-3-CARBOXAMIDE]	–
20%	–	CC(C)C(=O)N1Cc2ccc(C(=O)NCc3cccnc3)n2Cc2ccccc21 [Example 150]	–
